# In patent US20120269781A1, “METHOD FOR PROLIFERATING HAIR FOLLICLE STEM CELLS” (RNL BIO CO., LTD., priority 2009, published 2012):
# Assays:
# follicular stem cells [1] = experiment: Proliferation ability of follicular stem cells at various concentrations of ROCK inhibitor; format: cell-based, human; settings: M199/F-12 medium, days 2-6
# Method: In order to examine the proliferation ability of follicular stem cells at various concentrations of the ROCK inhibitor, the ROCK inhibitor was added at various concentrations to a M199/F-12 medium containing ITS+ premix, EGF, bFGF and antibiotic/antimycotic mixture, and the follicular stem cells obtained in Example 1 were cultured in the medium. Specifically, 10 μM of the ROCK inhibitor was added to M199/F-12 used in Example 1, and the P1 follicular stem cells were cultured in the M199/F-12 medium and collected by TrypLE-Express treatment. Then, the cells were added to each well of a 6-well plate at a density of 7.70×10^5 cells, and 2 ml of M199/F-12 was added to each well of the 6-well plate. The cell suspension was plated in each well of a 6-well plate, and then the ROCK inhibitor Y-27632 was added at concentrations of 10 nM, 100 nM, 1 μM, 10 μM and 100 μM to the 5 wells (excluding the well for a control group) of the 6-well plate, respectively, followed by culture of the follicular stem cells. The medium was replaced at 2-day intervals during culture of the cells, and the cells were photographed 2, 3, 4, 5 and 6 days after the start of cell culture.
# follicular stem cells [2] = experiment: Culture of follicular stem cells in 9 kinds of media with or without ROCK inhibitor; format: cell-based, human; settings: 10 μM
# Method: Then, the follicular stem cells were added to each well of a 12-well plate, and 1 ml of each of control groups and test groups for 9 kinds of media containing ITS+ (insulin, transferrine, selenium) premix, EGF, bFGF and an antibiotic/antimycotic mixture was added to each well of the 12-well plate. 10 μl (10 μM) of the ROCK inhibitor Y-27632 was added to each of the test groups, and the cells were cultured.
# At days 2, 3 and 4 after the start of culture, the state of proliferation of the follicular stem cells in each of the media was observed, and the results of the observation are shown in FIGS. 1 to 5.
smiles,measurement,setting,value
"CC(N)C1CCC(C(=O)Nc2ccncc2)CC1 (stereo not drawn) [ROCK inhibitor, Y-27632]",proliferation of the cells versus cells not treated,follicular stem cells [1]; 100 nM or less,did not significantly differ
same,morphology / differentiation of the cells,follicular stem cells [1]; 1 μM or 100 μM,morphological change or differentiation of the cells appeared
same,proliferation of the cells,follicular stem cells [1]; 1 μM or 100 μM,enhanced
same,effect on the proliferation of the follicular stem cells compared to the control groups,"follicular stem cells [2]; in M199/F12, MEM-alpha, DMEM L/G, DMEM H/G, MCDB 131 and IMEM medium",good effects
same,effect on the proliferation of the follicular stem cells compared to the control groups,follicular stem cells [2]; in M199/F12 medium and MEM-alpha medium,most excellent effects
same,effect on increase in the number and on the viability of follicular stem cells,follicular stem cells [2]; specific media containing the ROCK inhibitor,excellent effects
